Counter-ions that a name gives are not always drawn. A value given as a limit tells only on which side of the number the result lay.

For experiment [1], the target named is T1, TLR8 (Homo sapiens, UniProt Q9NR97).
T1 construct: expressed in transfected cells; host or cells: HEK cells carrying TLR8 and an NFkB luciferase reporter
T1 sequence (Q9NR97 27-1041): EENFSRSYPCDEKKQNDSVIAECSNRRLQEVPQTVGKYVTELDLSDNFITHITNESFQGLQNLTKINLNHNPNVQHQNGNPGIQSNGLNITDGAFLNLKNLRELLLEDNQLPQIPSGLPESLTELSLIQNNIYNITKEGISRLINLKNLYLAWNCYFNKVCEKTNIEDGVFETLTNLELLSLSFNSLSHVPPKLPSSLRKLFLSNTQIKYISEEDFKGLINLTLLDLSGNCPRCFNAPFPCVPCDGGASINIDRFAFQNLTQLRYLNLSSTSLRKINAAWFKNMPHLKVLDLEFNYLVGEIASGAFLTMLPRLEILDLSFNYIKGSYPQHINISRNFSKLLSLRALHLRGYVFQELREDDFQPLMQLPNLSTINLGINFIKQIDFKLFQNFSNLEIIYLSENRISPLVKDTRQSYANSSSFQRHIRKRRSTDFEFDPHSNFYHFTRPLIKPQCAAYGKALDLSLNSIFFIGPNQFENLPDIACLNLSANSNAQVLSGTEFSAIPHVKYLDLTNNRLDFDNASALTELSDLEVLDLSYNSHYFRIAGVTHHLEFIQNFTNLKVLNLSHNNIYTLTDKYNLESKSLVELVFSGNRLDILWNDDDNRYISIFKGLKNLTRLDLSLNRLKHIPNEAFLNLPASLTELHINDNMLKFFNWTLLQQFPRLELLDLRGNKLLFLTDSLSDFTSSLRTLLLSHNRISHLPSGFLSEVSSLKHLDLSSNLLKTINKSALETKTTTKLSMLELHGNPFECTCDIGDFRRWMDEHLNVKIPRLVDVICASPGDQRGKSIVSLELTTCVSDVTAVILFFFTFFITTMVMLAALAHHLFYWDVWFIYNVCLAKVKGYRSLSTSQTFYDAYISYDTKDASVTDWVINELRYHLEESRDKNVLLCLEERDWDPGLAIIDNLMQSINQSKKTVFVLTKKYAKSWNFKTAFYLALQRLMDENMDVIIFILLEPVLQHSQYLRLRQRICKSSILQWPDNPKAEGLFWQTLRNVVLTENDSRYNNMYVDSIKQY
The experiment can be described thus: HEK TLR8 Cell Assay. The settings on record: TLR8/NFKb HEK cells, R848 agonist 30 uM final, Steady-Glo readout. Type of experiment: cell-based. As to the method:
Example 25: HEK TLR8 Cell Assay
(§1) Into 384 CulturePlates (Corning 3707) was placed 5000 c/w of TLR8/NFKb HEK cells in 30 uL DMEM without Phenol red (gibco #31053) and 10% FCS-HI, 2 mM L-Glutamine, 1% Pen/Strept. The cells are incubated for 24 h at 37 degrees Celsius, and 10% carbon dioxide. Dispense 3 uL of controls, standards, and compounds to wells, incubate for 30 min then add 3 uL of R848 (30 uM final concentration) agonist in 20 mM Hepes. Incubate for 5 hours and then allow to stand at room temperature for 15 min. Add 10 uL of Steady-Glo substrate reagent and shake assay plate for 5 min at 1500 rpm. Let the assay plate sit for 30 min at room temperature and then read plate on EnVision.

In experiment [2] the target is T2, TLR7 (Homo sapiens, UniProt Q9NYK1).
T2 construct: expressed in transfected cells; host or cells: HEK cells carrying TLR7 and an NFkB luciferase reporter
T2 sequence (Q9NYK1 27-1049): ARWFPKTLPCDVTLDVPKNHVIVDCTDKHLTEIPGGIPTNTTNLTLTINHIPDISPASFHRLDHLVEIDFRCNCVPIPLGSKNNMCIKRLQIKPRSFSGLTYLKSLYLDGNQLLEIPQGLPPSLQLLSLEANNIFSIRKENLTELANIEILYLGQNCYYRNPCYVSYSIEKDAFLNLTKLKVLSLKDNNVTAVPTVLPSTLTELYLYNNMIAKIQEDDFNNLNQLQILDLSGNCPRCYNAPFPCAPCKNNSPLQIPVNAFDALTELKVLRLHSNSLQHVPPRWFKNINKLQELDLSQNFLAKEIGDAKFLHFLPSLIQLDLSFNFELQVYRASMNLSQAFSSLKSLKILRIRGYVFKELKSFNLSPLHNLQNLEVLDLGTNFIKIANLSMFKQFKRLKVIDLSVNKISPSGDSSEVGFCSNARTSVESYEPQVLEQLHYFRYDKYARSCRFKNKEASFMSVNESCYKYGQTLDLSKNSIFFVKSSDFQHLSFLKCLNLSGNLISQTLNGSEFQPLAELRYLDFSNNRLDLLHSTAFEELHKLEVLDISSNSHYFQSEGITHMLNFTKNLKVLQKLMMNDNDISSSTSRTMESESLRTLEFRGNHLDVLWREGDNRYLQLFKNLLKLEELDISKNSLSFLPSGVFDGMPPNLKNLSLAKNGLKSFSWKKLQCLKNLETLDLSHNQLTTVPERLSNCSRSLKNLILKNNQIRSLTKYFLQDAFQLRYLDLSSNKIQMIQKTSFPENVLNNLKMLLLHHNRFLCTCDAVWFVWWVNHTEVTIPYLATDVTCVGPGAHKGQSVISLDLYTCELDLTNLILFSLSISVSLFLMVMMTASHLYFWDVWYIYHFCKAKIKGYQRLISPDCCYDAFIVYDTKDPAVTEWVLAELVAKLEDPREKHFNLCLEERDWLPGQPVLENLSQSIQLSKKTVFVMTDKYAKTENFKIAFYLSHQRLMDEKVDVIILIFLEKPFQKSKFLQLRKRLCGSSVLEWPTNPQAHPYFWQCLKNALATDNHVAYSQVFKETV
The experiment can be described thus: HEK TLR7 Cell Assay. Type of experiment: cell-based. Particulars: TLR7/NFKb HEK cells, R848 agonist 10 uM final, Steady-Glo readout. As to the method: Example 24: HEK TLR7 Cell Assay
as §1, with “TLR7/NFKb” for “TLR8/NFKb”, “(10” for “(30”

For `Cc1ccc(N2C[C@@H](C)[C@@H](NC(=O)[C@H](O)C(C)C)C2)c2cccnc12` [Compound 48, (2R)-2-hydroxy-3-methyl-N-[(3R,4R)-4-methyl-1-(8-methylquinolin-5-yl)pyrrolidin-3-yl]butanamide], the IC50 in experiment [1] and in experiment [2] was above 10000 nM each time.
As to `CC1CN(c2ccc(C#N)c3nccnc23)CC1N` (stereo not drawn) [Compound 56, 8-(3-Amino-4-methyl-pyrrolidin-1-yl)-quinoxaline-5-carbonitrile hydrochloride], the IC50 in experiment [1] and in experiment [2] was below 1000 nM in each case.
Regarding `C[C@@H]1CN(c2ccc(C#N)c3nccnc23)C[C@@H]1NC(=O)CC1(F)CCNCC1` [Compound 9, N-[(3R,4R)-1-(8-cyanoquinoxalin-5-yl)-4-methylpyrrolidin-3-yl]-2-(4-fluoropiperidin-4-yl)acetamide], the IC50 in experiment [1] and in experiment [2] was below 1000 nM in each case.
Regarding `Cc1ccc(N2C[C@@H](C)[C@@H](NC(=O)CC3CCN(C)CC3)C2)c2cccnc12` [Compound 34, N-[(3R,4R)-4-methyl-1-(8-methylquinolin-5-yl)pyrrolidin-3-yl]-2-(1-methylpiperidin-4-yl)acetamide], the IC50 in experiment [1] and in experiment [2] was below 1000 nM each time.
Regarding `C[C@@H]1CN(c2ccc(C(F)(F)F)c3ncccc23)C[C@@H]1NC(=O)CC1CCN(C)CC1` [Compound 18, N-[(3R,4R)-4-methyl-1-[8-(trifluoromethyl)quinolin-5-yl]pyrrolidin-3-yl]-2-(1-methylpiperidin-4-yl)acetamide], the half-maximal inhibitory concentration (IC50) in experiment [1] and in experiment [2] was below 1000 nM each time.
`C[C@@H]1CN(c2ccc(C#N)c3nccnc23)C[C@@H]1NC(=O)CC1CCN(C)C1` (single isomer, unassigned) [Compound 6]: the IC50 in experiment [1] and in experiment [2] was below 1000 nM each time.
For the compound `C[C@@H]1CN(c2ccc(C(F)(F)F)c3ncccc23)C[C@@H]1NC(=O)C(O)C1CC1` (single isomer, unassigned) [Compound 29], the IC50 – broadly, the concentration needed to halve the response being measured – was above 10000 nM in experiment [1] and 1000 to 10000 nM in experiment [2].
With `C[C@@H]1CN(c2ccc(C#N)c3nccnc23)C[C@@H]1N` [Compound 1, 8-[(3R,4R)-3-amino-4-methylpyrrolidin-1-yl]quinoxaline-5-carbonitrile], the IC50 in experiment [1] is 1000 to 10000 nM; in experiment [2], below 1000 nM.
The corresponding values for `Cc1ccc(N2C[C@@H](C)[C@@H](NC(=O)CC3(F)CCN(C)CC3)C2)c2cccnc12` [Compound 42, 2-(4-fluoro-1-methylpiperidin-4-yl)-N-[(3R,4R)-4-methyl-1-(8-methylquinolin-5-yl)pyrrolidin-3-yl]acetamide] are below 1000 nM and below 1000 nM.
`Cc1ccc(N2C[C@@H](C)[C@@H](NC(=O)CC3CCN(C)C3)C2)c2cccnc12` (single isomer, unassigned) [Compound 38]: the values for the IC50 in experiment [1] and in experiment [2] were 1000 to 10000 nM and below 1000 nM, respectively.
As to `Cc1ncc(N2C[C@@H](C)[C@@H](NC(=O)CC3CCN(C)CC3)C2)c2cccnc12` [Compound 52, N-[(3R,4R)-4-methyl-1-(8-methyl-[1,7]naphthyridin-5-yl)-pyrrolidin-3-yl]-2-(1-methyl-piperidin-4-yl)-acetamide], the half-maximal inhibitory concentration (IC50) in experiment [1] was above 10000 nM; in experiment [2], below 1000 nM.
Consider `C[C@@H]1CN(c2ccc(C(F)(F)F)c3ncccc23)C[C@@H]1NC(=O)CN1CCOCC1` [Compound 23, N-[(3R,4R)-4-methyl-1-[8-(trifluoromethyl)quinolin-5-yl]pyrrolidin-3-yl]-2-(morpholin-4-yl)acetamide], for which the IC50 was above 10000 nM in experiment [1] and 1000 to 10000 nM in experiment [2].
For the compound `Cc1ncc(N2C[C@@H](C)[C@@H](N)C2)c2cccnc12` [Compound 51, (3R,4R)-4-methyl-1-(8-methyl-[1,7]naphthyridin-5-yl)-pyrrolidin-3-ylamine hydrochloride], the IC50 in experiment [1] is above 10000 nM; in experiment [2], 1000 to 10000 nM.
In the case of `Cc1ccc(N2C[C@@H](C)[C@@H](NC(=O)[C@@H](O)C(C)C)C2)c2cccnc12` [Compound 47, (2S)-2-hydroxy-3-methyl-N-[(3R,4R)-4-methyl-1-(8-methylquinolin-5-yl)pyrrolidin-3-yl]butanamide], the IC50 is above 10000 nM in experiment [1] and 1000 to 10000 nM in experiment [2].
As for `C[C@@H]1CN(c2ccc(C#N)c3nccnc23)C[C@@H]1NC(=O)CC1CCN(C)C1` (single isomer, unassigned) [Compound 5], the IC50 in experiment [1] and in experiment [2] was below 1000 nM in each case.
